Assays:
[1] = molecular target: T1, human recombinant chemokine CCR8 receptor (Homo sapiens, UniProt P51685); test: CCL1 SPA binding assay; conditions: inhibition of 125I CCL1 binding to CCR8 membranes from transfected CHO-K1 cells
T1 construct: purchased Euroscreen ES-136-M; host or cells: CHO-K1 cells (membranes)
Procedure: 1 μl of DMSO was added to the blank control wells and 1 μl unlabeled CCL1 (300 nM) was added to background control wells. 50 μl of the SPA bead-membrane mixture was added into each well. […] Plates were then incubated at RT with shaking (700 rpm) for 90 minutes followed by 30 minutes at RT without shaking. The plate was read in a Wallac MicroBeta counter for 2 minutes/well.

[2] = Human microsomal stability assay; type: in vitro ADME; conditions: human microsomes (Xenotech); human microsomes 1 mg protein/mL, compound 2.5 μM, NADPH 2 mM, pH 7.4, 37° C.; read-out: Intrinsic clearance
Procedure: Human Microsomal Stability Assay
Samples at four time-points (0, 5, 15 and 30 minutes) are withdrawn and the enzymatic reaction is terminated by protein precipitation with 1% acetic acid in acetonitrile. The incubations are performed on a thermostated plate (37° C.) placed on a Tecan worktable, and all liquid handling was performed robotically. After centrifugation of the samples, the supernatants are pooled in sets of four before they are analysed by liquid chromatography with tandem mass spectrometry detection (LC/MS/MS) using multiple reaction monitoring (MRM). Data are presented as intrinsic Clearance (CLint), μl/min/mg protein, calculated from the initial linear part of the compound disappearance curve.

T1 sequence (P51685 whole entry): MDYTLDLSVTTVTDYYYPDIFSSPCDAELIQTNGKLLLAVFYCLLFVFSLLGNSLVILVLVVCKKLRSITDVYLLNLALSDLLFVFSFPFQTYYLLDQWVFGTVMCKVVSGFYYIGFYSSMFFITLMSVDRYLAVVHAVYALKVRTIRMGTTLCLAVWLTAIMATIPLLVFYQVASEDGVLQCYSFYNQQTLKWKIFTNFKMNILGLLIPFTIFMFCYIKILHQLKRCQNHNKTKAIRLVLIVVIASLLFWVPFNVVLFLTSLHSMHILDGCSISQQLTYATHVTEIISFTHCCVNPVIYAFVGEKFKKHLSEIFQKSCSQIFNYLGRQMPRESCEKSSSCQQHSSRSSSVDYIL

| Compound | IC50 [1] | microsomal CLint at 2.5 μM [2] |
| --- | --- | --- |
| CC(C)COc1ccccc1CN1CCC2(CC1)CCN(C(=O)c1cc[n+]([O-])cc1)CC2 [A, 3-(2-isobutoxybenzyl)-9-(1-oxidoisonicotinoyl)-3,9-diazaspiro[5.5]undecane, reference compound] | 2670 nM | – |
| CC(C)COc1ccccc1CN1CCC2(CC1)CCN(C(=O)c1ccc[n+]([O-])c1)CC2 [B, 3-(2-isobutoxybenzyl)-9-[(1-oxidopyridin-3-yl)carbonyl]-3,9-diazaspiro[5.5]undecane, reference compound] | 3050 nM | – |
| O=C(c1cccc[n+]1[O-])N1CCC2(CCN(Cc3cccc(Oc4ccccc4)c3)CC2)CC1 [Example 1, 3-[(1-oxidopyridin-2-yl)carbonyl]-9-(3-phenoxybenzyl)-3,9-diazaspiro[5.5]undecane] | 193 nM | < 10 µL/min/mg |
| O=C(c1cc[n+]([O-])cc1)N1CCC2(CCN(Cc3cccc(Oc4ccccc4)c3)CC2)CC1 [Example 2, 3-(1-oxidoisonicotinoyl)-9-(3-phenoxybenzyl)-3,9-diazaspiro[5.5]undecane] | 305 nM | < 10 µL/min/mg |
| COc1ccccc1Oc1ccccc1CN1CCC2(CC1)CCN(C(=O)c1cccc[n+]1[O-])CC2 [Example 3, 3-[2-(2-methoxyphenoxy)benzyl]-9-[(1-oxidopyridin-2-yl)carbonyl]-3,9-diazaspiro[5.5]undecane] | 87 nM | < 10 µL/min/mg |
| COc1ccccc1Oc1ccccc1CN1CCC2(CC1)CCN(C(=O)c1cc[n+]([O-])cc1)CC2 [Example 4, 3-[2-(2-methoxyphenoxy)benzyl]-9-(1-oxidoisonicotinoyl)-3,9-diazaspiro[5.5]undecane] | 117 nM | < 10 µL/min/mg |
| COc1ccccc1Oc1ccccc1CN1CCC2(CC1)CCN(C(=O)c1ccc[n+]([O-])c1)CC2 [Example 5, 3-[2-(2-methoxyphenoxy)benzyl]-9-[(1-oxidopyridin-3-yl)carbonyl]-3,9-diazaspiro[5.5]undecane] | 268 nM | < 10 µL/min/mg |
| COc1ccccc1Oc1cccc(CN2CCC3(CC2)CCN(C(=O)c2ccc[n+]([O-])c2)CC3)c1 [Example 8, 3-[3-(2-methoxyphenoxy)benzyl]-9-[(1-oxidopyridin-3-yl)carbonyl]-3,9-diazaspiro[5.5]undecane] | 207 nM | < 10 µL/min/mg |
| COc1ccccc1Oc1ccccc1CN1CCC2(CC1)CCN(C(=O)c1ccncc1)CC2 [X, 3-isonicotinoyl-9-[2-(2-methoxyphenoxy)benzyl]-3,9-diazaspiro[5.5]undecane, reference compound] | – | 89 µL/min/mg |
| COc1ccccc1Oc1cccc(CN2CCC3(CC2)CCN(C(=O)c2ccncc2)CC3)c1 [Y, 3-isonicotinoyl-9-[3-(2-methoxyphenoxy)benzyl]-3,9-diazaspiro[5,5]undecane, reference compound] | – | 183 µL/min/mg |
